Test results taken from patent publication US7192728B2, “Screening assays for agents that alter inhibitor of apoptosis (IAP) protein regulation of caspase activity” (The Burnham Institute, priority 1997, dated 2007).

Legend:
[1] = test system: pro-caspase-3 processing induced by cytochrome c; assay: Cytochrome c-induced processing of pro-caspase-3 in 293 cytosolic extracts; type: biochemical, human; settings: immunoblot
Procedure: Samples were incubated at 30° C. for 30 minutes. Extracts were then separated by SDS-PAGE electrophoresis, transferred to nitrocellulose and incubated with antisera specific for the zymogen and large subunit of caspase-3.
Briefly, cells were washed with ice-cold buffer A (20 mM Hepes [pH 7.5], 10 mM KCl, 1.5 mM MgCl2, 1 mM EDTA, and 1 mM DTT) and suspended in 1 volume of buffer A. Cells were incubated on ice for 20 minutes and then disrupted by passage through a 26 gauge needle 15 times. Cell extracts were clarified by centrifugation at 16,000×g for 30 minutes and the resulting supernatants were stored at −80° C. For initiating caspase activation, either 10 μM horse heart cytochrome c (Sigma, Inc.) together with 1 mM dATP, or 100 nM of purified recombinant caspase-8, was added to extracts (10–15 mg total protein/ml).

293T cells = assay: Bax-induced apoptosis and caspase activation in transfected 293T cells; type: cell-based, human
Procedure: N-benzyloxycarbonyl-Val-Ala-Asp fluoromethylketone (zVAD-fmk; 50 μM) (Bachem Calif.; Torrance, Calif.) was added immediately after transfection of the Bax plasmid. Transfection efficiency was uniformly 80–90%, as determined by X-Gal staining following cotransfection with pCMV-βGal.
Cells were maintained in culture for 24 hr, then floating and attached cells were harvested and an aliquot was removed and the percent of dead cells was determined by either trypan blue or propidium iodide (PI) dye exclusion assay. A second aliquot was used to assess the percentage of apoptotic cells with subdiploid DNA content by FACS analysis of PI stained, ethanol fixed cells. The remaining cell pellets were lysed in 10 mM HEPES (pH 7.5), 142 mM KCl, 1 mM EGTA, 1 mM DTT, 0.2% NP-40, 0.1 mM PMSF and used for immunoblot analysis or for protease assays.

caspase-6 = target: T1, caspase-6 (Homo sapiens, UniProt P55212); assay: GST pull-down binding to caspase-6; settings: glutathione-Sepharose beads, immunoblot
T1 construct: Purified active caspase concentrations ranged from 0.1 nM to 10 nM; His6; made in house; host or cells: E. coli BL21(DE3)pLysS
T1 sequence (P55212 24-179 limits assumed): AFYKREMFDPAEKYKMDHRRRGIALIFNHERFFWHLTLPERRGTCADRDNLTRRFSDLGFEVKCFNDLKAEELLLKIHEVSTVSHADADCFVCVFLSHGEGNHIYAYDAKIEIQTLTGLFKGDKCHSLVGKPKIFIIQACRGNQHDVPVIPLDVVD
T1 sequence (P55212 194-293 limits assumed): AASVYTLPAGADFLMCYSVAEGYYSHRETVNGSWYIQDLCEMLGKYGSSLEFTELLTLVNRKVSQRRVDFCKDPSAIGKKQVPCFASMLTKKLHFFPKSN

[2] = test system: DEVD-pNA hydrolysis activity in Jurkat T cell cytosolic extracts; assay: Cytochrome c/dATP-induced caspase activation (DEVD-pNA hydrolysis) in Jurkat T cell cytosolic extracts; type: biochemical
Procedure: (§1) Cells were washed with ice cold buffer A (20 mM Hepes (pH 7.5), 10 mM KCl, 1.5 mM MgCl2, 1 mM EDTA, 1 mM DTT and 0.1 mM PMSF) and suspended in 1 vol buffer A, then incubated on ice for 20 min. 293 cells were disrupted by passage 15× through a 26 gauge needle and Jurkat T cells were disrupted by dounce homogenization in 2 ml using 15 strokes with a pestle B. Cell extracts (10–15 mg total protein/ml) were clarified by centrifugation at 16,000×g for 30 min, then the NaCl concentration was increased by 50 mM. Cytosolic fractions were used immediately or stored frozen at −80° C.
Caspase activity was assayed by release of either 7-amino-4-trifluoromethyl-coumarin (AFC) or p-nitroanilide (pNA) from benzylyoxycarbonyl-DEVD (SEQ ID NO: 2) or benzylyoxycarbonyl-YVAD (SEQ ID NO: 3) synthetic peptides using a Molecular Devices Spectromax 340 for AFC labeled peptides or Perkin/Elmer LS50B for pNA labeled peptides (see Example II; see, also, Zhou et al., supra, 1997). Cytosolic extracts from 293 cells or Jurkat T cells were used directly (negative control) or were treated with 1 μM cytochrome c and 1 mM dATP or with cytochrome c, dATP and 0.2 μM GST-XIAP. Additional control reactions were performed by substituting 2 μM GST-Bcl-2, GST-Bax, GST-NM23 or GST-CD40 cytosolic domain, or 5 μM His6-S5a protein for GST-XIAP. DEVD-pNA hydrolysis was measured at various times and multiple experiments were performed using several different GST-XIAP preparations.

caspase-7 = target: T2, caspase-7 (Homo sapiens, UniProt P55210); assay: Inhibition of purified recombinant caspase-7, DEVD substrate hydrolysis and progress curves; type: biochemical
T2 construct: Purified active caspase concentrations ranged from 0.1 nM to 10 nM; His6; made in house; host or cells: E. coli BL21(DE3)pLysS
T2 sequence (P55210 24-198 limits assumed): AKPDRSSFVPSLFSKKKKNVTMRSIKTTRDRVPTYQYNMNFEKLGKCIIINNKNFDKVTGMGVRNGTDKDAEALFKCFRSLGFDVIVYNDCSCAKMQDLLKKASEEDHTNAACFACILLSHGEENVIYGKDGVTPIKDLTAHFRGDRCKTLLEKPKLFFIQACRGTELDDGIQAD
T2 sequence (P55210 207-303 limits assumed): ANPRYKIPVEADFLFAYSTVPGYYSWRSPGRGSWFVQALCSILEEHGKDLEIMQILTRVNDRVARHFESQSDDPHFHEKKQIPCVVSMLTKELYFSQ

[3] = test system: HeLa cell nuclei in cytosolic extract; assay: Apoptosis of isolated nuclei in cell-free system (cytochrome c/dATP); settings: 0.4 μM protein with 10 μM cytochrome c and 1 mM dATP; 37° C., 60 min; baseline about 15%, cytochrome c/dATP alone >95%
Procedure: as §1
Isolated nuclei were prepared from HeLa cells (Martin et al., supra, 1995). Approximately 5×10^4 to 1×10^5 nuclei were added to 20 μl cytosolic extract and apoptosis was initiated by adding 10 μM horse heart cytochrome c (Sigma, Inc.; St. Louis Mo.) and 1 mM dATP, alone (positive control) or with cytochrome c, dATP and either 0.4 μM GST-XIAP or 0.4 μM GST-Bcl-2. Following incubation at 37° C. for 60 min., nuclei were stained with 1 μg/ml of acridine orange and ethidium bromide and the percentage nuclei with apoptotic features, including extremely condensed chromatin and the genesis of fragmentation of nuclei, was determined.

concentration that effectively abolished cytochrome c-induced processing of pro-caspase-3 [1]: 0.1 to 0.2 µM
binding of caspase-6 (in words) (caspase-6): not caspase-6
inhibition of processing of DEVD-pNA by caspase-7 (caspase-7; 10-fold molar excess): greater than 95%
average ratio velocity (vi/vo), caspase-7 (caspase-7; DEVD-AFC hydrolysis with/without GST-XIAP): less than 0.2
Ki (caspase-7; progress curve analysis, DEVD-AFC 0.1 mM, 0.1 nM caspase, read-out: inhibition constant (Ki) for caspase-7): ~0.2 nM
Substance: XIAP: X chromosome linked inhibitor of apoptosis protein (Genbank U32974), used mostly as recombinant GST fusion or expressed from plasmid
apoptotic cells (PI staining) in Bax expressing cells (293T cells; 24 hr, Bax alone about 25%, zVAD-fmk 50 μM): less than 10%
Bax-induced generation of caspase activity and pro-caspase-3 processing (in words) (293T cells; DEVD-AFC hydrolysis and immunoblot of cell extracts): markedly inhibited
apoptotic cells (PI staining) (293T cells; XIAP expressed without Bax, control plasmid about 2%): about 5%
DEVD-pNA hydrolysis, ΔA405 after 15 min ([2]; untreated ≈0.02): ≈ 0.025
DEVD-pNA hydrolysis, ΔA405 after 20 min ([2]; untreated ≈0.025): ≈ 0.03
apoptotic nuclei [3]: about 15%
